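Growth conditions: 96-well plates. Treatment: test compound, 48 hours, 5 concentrations. Analysis: linear interpolation between bracketing concentrations; unreached endpoints set to highest concentration. GI50 = concentration required for 50% inhibition of growth. Definition used: TGI = concentration required for complete inhibition of growth.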

Usually GI50 stands for the concentration that inhibits growth by half. The TGI is the concentration giving total growth inhibition. A low value points to more potent growth arrest.

Test systems include MDA-MB-231 breast; SNB-19 CNS; SK-MEL-2 melanoma; KM12 colon; 786-0 renal; T-47D breast; EKVX NSCLC; MCF7 breast; TK-10 renal; MALME-3M melanoma.
What all share (assay): DTP human tumour cell line panel, 48 h

Turning to `CSC(=NC#N)S/C=C/C(=O)c1ccccc1`, the GI50 was 39.2 µM with MDA-MB-231 breast; greater than 100 µM in the assay on SNB-19 CNS; 70.6 µM in the assay on SK-MEL-2 melanoma; greater than 100 µM in the assay on KM12 colon; 33.7 µM in the assay on 786-0 renal; greater than 100 µM with T-47D breast. Moreover, the GI50 was 86.4 µM in the assay with EKVX NSCLC, 52.3 µM in the assay with MCF7 breast, 34.5 µM in the assay on TK-10 renal and 31.2 µM in the assay on MALME-3M melanoma. The concentration for total growth inhibition (TGI) in the assay on MDA-MB-231 breast, in the assay on SNB-19 CNS, with SK-MEL-2 melanoma, in the assay with KM12 colon, with 786-0 renal and in the assay on T-47D breast was greater than 100 µM throughout. The concentration for total growth inhibition (TGI) was greater than 100 µM with EKVX NSCLC, greater than 100 µM in the assay with MCF7 breast, greater than 100 µM in the assay with TK-10 renal and 74.7 µM in the assay with MALME-3M melanoma.
For `CC(C)N1CCN(c2ccncc2S(=O)(=O)N2CCCCC2)CC1`, the TGI in the assay on MDA-MB-231 breast, in the assay on SNB-19 CNS, in the assay on SK-MEL-2 melanoma, in the assay on KM12 colon, with 786-0 renal and in the assay with T-47D breast was greater than 100 µM throughout. Further, the total growth inhibition concentration (TGI) in the assay with EKVX NSCLC, in the assay on MCF7 breast, in the assay with TK-10 renal and in the assay on MALME-3M melanoma was greater than 100 µM in each case.
For `CC(=O)O[C@H]([C@H](OC(C)=O)[C@H](C)OC(C)=O)[C@@H](/C=C/[C@@H]1CC=CC(=O)O1)OC(C)=O`, the GI50 in the assay on MDA-MB-231 breast is greater than 100 µM; in the assay with SNB-19 CNS, 59.5 µM; in the assay on SK-MEL-2 melanoma it was 24 µM; in the assay with KM12 colon, greater than 100 µM; in the assay with 786-0 renal, 90.1 µM; in the assay with T-47D breast it was 27.4 µM. The GI50 in the assay on EKVX NSCLC is greater than 100 µM; in the assay with MCF7 breast, 33.5 µM; in the assay on TK-10 renal, greater than 100 µM; in the assay on MALME-3M melanoma, greater than 100 µM. In addition, the total growth inhibition concentration (TGI) was greater than 100 µM with MDA-MB-231 breast; greater than 100 µM with SNB-19 CNS; 74.4 µM in the assay on SK-MEL-2 melanoma; greater than 100 µM in the assay on KM12 colon; greater than 100 µM in the assay on 786-0 renal; greater than 100 µM with T-47D breast. Moreover, the total growth inhibition concentration (TGI) with EKVX NSCLC, in the assay with MCF7 breast, in the assay on TK-10 renal and with MALME-3M melanoma was greater than 100 µM in each case.
For the molecule `C=C1CC2(CC(c3ccccc3Cl)OC(c3ccccc3Cl)C2)OC1=O` (stereo not given), the TGI in the assay with MDA-MB-231 breast worked out at 3.45 µM; with SNB-19 CNS it was 29.5 µM; with SK-MEL-2 melanoma, 6.78 µM; in the assay with KM12 colon, 7.56 µM; in the assay on 786-0 renal it was 4.66 µM; with T-47D breast, 3.22 µM. In addition, the TGI with EKVX NSCLC came out at 15.2 µM; in the assay on MCF7 breast it was 5 µM; in the assay with TK-10 renal, 9.03 µM; with MALME-3M melanoma, 8.19 µM.
For the molecule `COC1C(O)CC(OC2CC(OC3CC(O[C@@H]4C(=O)c5c(cc6cc(OC7CC(OC8CC(O)C(O)C(C)O8)C(O)C(C)O7)c(C)c(O)c6c5O)CC4[C@H](OC)C(=O)O)OC(C)C3O)OC(C)C2O)OC1C` (stereo not given in full), the GI50 is 4.43 µM in the assay with MDA-MB-231 breast; 1.68 µM with SNB-19 CNS; 1.47 µM in the assay with SK-MEL-2 melanoma; 1.89 µM in the assay on KM12 colon; 2.1 µM in the assay on 786-0 renal; 1.33 µM with T-47D breast. Also, the GI50 in the assay with EKVX NSCLC was 2.31 µM; with MCF7 breast it was 0.928 µM; in the assay on TK-10 renal, 4.56 µM; with MALME-3M melanoma, 2.37 µM. Also, the concentration for total growth inhibition (TGI) in the assay with MDA-MB-231 breast was greater than 33.3 µM; in the assay with SNB-19 CNS, greater than 33.3 µM; in the assay on SK-MEL-2 melanoma it was 10.6 µM; in the assay on KM12 colon, greater than 33.3 µM; in the assay on 786-0 renal, greater than 33.3 µM; in the assay with T-47D breast it was 32.1 µM. Further, the total growth inhibition concentration (TGI) with EKVX NSCLC is greater than 33.3 µM; in the assay on MCF7 breast, greater than 33.3 µM; in the assay with TK-10 renal it was greater than 33.3 µM; in the assay on MALME-3M melanoma, 28.6 µM.
As for `CN(CCCCCl)P(=O)(OCCS(=O)(=O)CC(NC(=O)CCC(N)C(=O)O)C(=O)NC(C(=O)O)c1ccccc1)OCC1OC(n2ccc(N)nc2=O)C(O)C1O` (stereo not given), the GI50 in the assay with MDA-MB-231 breast is greater than 75 µM; with SNB-19 CNS, 45.8 µM; with SK-MEL-2 melanoma, greater than 75 µM; with KM12 colon, 27.4 µM; with 786-0 renal it was 32.2 µM; in the assay with T-47D breast, 23.1 µM. Further, the GI50 with EKVX NSCLC is 67.4 µM; in the assay on MCF7 breast, 3.27 µM; in the assay with TK-10 renal it was 73.4 µM; with MALME-3M melanoma it was 12.6 µM. For the same molecule, the TGI in the assay with MDA-MB-231 breast, with SNB-19 CNS, with SK-MEL-2 melanoma, with KM12 colon, with 786-0 renal and in the assay with T-47D breast was greater than 75 µM in each case. For the same molecule, the total growth inhibition concentration (TGI) in the assay on EKVX NSCLC, in the assay on MCF7 breast, in the assay on TK-10 renal and in the assay on MALME-3M melanoma was greater than 75 µM throughout.
Regarding `N#Cc1c(NCc2ccccc2)nc(NCc2ccccc2)c(C#N)c1-c1ccc(O)cc1`, the GI50 with MDA-MB-231 breast was 2.68 µM; in the assay with SNB-19 CNS, 50.5 µM; with SK-MEL-2 melanoma, 41.1 µM; with KM12 colon, 16.8 µM; in the assay with 786-0 renal it was 23 µM; in the assay on T-47D breast it was 23.8 µM. Besides, the GI50 in the assay on EKVX NSCLC is 48.5 µM; in the assay with MCF7 breast, 39.7 µM; with TK-10 renal, 22.6 µM; in the assay on MALME-3M melanoma, 29.5 µM. Moreover, the TGI is 33 µM with MDA-MB-231 breast; greater than 100 µM with SNB-19 CNS; 90.7 µM with SK-MEL-2 melanoma; 59.7 µM in the assay with KM12 colon; greater than 100 µM in the assay on 786-0 renal; greater than 100 µM in the assay with T-47D breast. Besides, the TGI was greater than 100 µM with EKVX NSCLC, greater than 100 µM in the assay on MCF7 breast, 69.4 µM in the assay on TK-10 renal and 68.5 µM in the assay on MALME-3M melanoma.
Take `CCCCOC(=O)c1ccc(N)cc1`: the GI50 is greater than 100 µM in the assay with MDA-MB-231 breast; 75.2 µM in the assay on SNB-19 CNS; greater than 100 µM in the assay on SK-MEL-2 melanoma; 29.8 µM with KM12 colon; 32.4 µM in the assay with 786-0 renal; 47.6 µM in the assay on T-47D breast. Further, the GI50 in the assay on EKVX NSCLC is 39.7 µM; in the assay on MCF7 breast, 74.6 µM; in the assay with TK-10 renal, 92 µM; in the assay on MALME-3M melanoma, greater than 100 µM. The TGI in the assay on MDA-MB-231 breast, in the assay on SNB-19 CNS, in the assay on SK-MEL-2 melanoma, with KM12 colon, with 786-0 renal and in the assay on T-47D breast was greater than 100 µM each time. Besides, the total growth inhibition concentration (TGI) in the assay on EKVX NSCLC, in the assay with MCF7 breast, in the assay on TK-10 renal and with MALME-3M melanoma was greater than 100 µM in each case.

Source of the values: PubChem BioAssay (NCI).
